Numbered stars: 1 amine (or outer) side, 2 acyl side, 3 side chain; on linkers, the order of the positions; unused ones are H or OH. Square brackets hold non-standard residues; d marks the D form. Ends that are not written are not given here. Peptide text beside a SMILES is read from it. Gly(N-CH2CH2-imidazol-4-yl) = O=C(O)CNCCc1c[nH]cn1; X1 = CC(C)[C@H](C)N(CC(=O)[*:2])[*:1]; Nspe = C[C@H](NCC(=O)O)c1ccccc1; Nphe = O=C(O)CNCc1ccccc1; Nlys = NCCCCNCC(=O)O
Experiments:
E. coli JM109 = format: cell-based; settings: Table 1; SR = (HD10)/(E. coli MIC); listed as 1-/Vhis6,12
Description: An initial set of 15 ampetoid analogs was synthesized to determine whether peptoids are affected by structural and sequence modifications in a manner consistent with AMP activities. The designs for ampetoids in this library were derived from two antibacterial and selective amphipathic dodecamers, 1 and 2. Peptoid 1 [H-(Nlys-Nspe-Nspe)4-NH2] is composed of 2/3 Nspe, the peptoid analog of phenylalanine, and 1/3 Mys, the peptoid analog of lysine (see FIG. 1 for the structures of representative peptoid monomers and corresponding N-substituents). Peptoid 2 [H-(Mys-Nssb-Nspe)4-NH2] contains 1/3 isoleucine-like Nssb monomers in place of Nspe. The variant sequences were designed to effect changes in chirality, length, hydrophobicity, charge, and amphipathicity. All of these compounds were tested for antibacterial activity against representative BSL1 Gram-negative (E. coli JM109) and Gram-positive (B. subtilis BR151) bacterial strains. As an initial measure of selectivity, the lytic activity of the peptoids was determined against human erythrocytes. Table 1 summarizes the sequences synthesized, the solvent composition at RP-HPLC elution as a relative measure of molecular hydrophobicity, and antibacterial and hemolytic activities.
Antibacterial assays. MICs were determined according to CLSI M7-A6 protocols in a 96-well microtiter plate. […]

[1] = system: A549 lung epithelial cells; assay: MTS assay, A549 cells
Protocol: The biocompatibility of selected oligomers with A549 lung epithelial cells was evaluated using the MTS [3-(4,5-dimethylthiazol-2-yl)-5-(3-carboxymethoxyphenyl)-2-(4-sulfophenyl)-2H-tetrazolium] assay.
MTS Assays. A549 carcinoma-derived lung epithelial cells (ATTC CCL-185) were cultured in Ham's F12K media (ATTC, Manassas, Va.). A peptoid solution plate (100 μL/well) was prepared by serial dilution of aqueous peptoid stocks in media. Peptoid solutions were transferred onto a 96-well plate of day-old cell monolayers containing 100 μL/well media with 5000 cells/well. MTS reagent (Promega Corporation, Madison, Wis.) (40 μL/well) was added to each well and the plate was incubated at 37° C. for 3 h, after which absorbance at 490 nm was determined. Percent inhibition was determined as [1−(A−Atest blank)/(Acontrol−Ablank)]×100, where A is the absorbance of the test well and Acontrol the average absorbance of wells with cells exposed to media and MTS (no peptoid). Atest blank (media, MTS, and peptoid) and Ablank (media and MTS) were background absorbances measured in the absence of cells. The average of six replicates are reported, and error bars show one standard deviation.

MTS assay, NIH 3T3 cells = format: cell-based, mouse; settings: mouse, NIH 3T3 fibroblast cells
In short: (§1)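 NIH/3T3 cells seeded at 5,000 per well, grown a day in DMEM with 10% FBS, then washed and exposed to serially diluted peptoid in HBSS together with MTS reagent. Absorbance at 490 nm read after 3 hours at 37 °C as a measure of metabolic activity; mean of six replicates.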

[2] = system: Proteus mirabilis ATCC 35659; assay: Broad-spectrum antibacterial MIC; format: cell-based; settings: Table 7B; 10% hemolytic dose divided by MIC; P. mirabilis ATCC 35659
Protocol: (§2) Antibacterial assays. MICs were determined according to CLSI M7-A6 protocols in a 96-well microtiter plate. In test wells, 50 uL bacterial inoculum (5×10^5 CFU/ml) in Mueller-Hinton broth (MHB) was added to 50 μL peptoid solution in MHB (prepared by 1:2 serial dilutions). Positive controls contained 50 μL inoculum and 50 μL MHB without peptoid. […] MIC values reported were reproducible between three independent experimental replicates, each consisting of two parallel trials. Broad-spectrum antimicrobial susceptibility testing was performed against BSL2 pathogens by Nova Biologicals, Inc. (Conroe, Tex.).
(§3) Broad-spectrum antibacterial assays. MICs of compounds were determined by microdilution procedure in Mueller-Hinton broth (MHB) in accordance with CLSI M7-A6 protocols in a manner similar to that described for the screen antibacterial assays. Inoculated microtiter plates were incubated at 35° C. for 24 hours prior to the result being recorded. Four ATCC strains that were used as standards are recommended by CLSI: Pseudomonas aeruginosa ATCC 27853, Escherichia coli ATCC 25922, Staphylococcus aureus ATCC 29213 and Enterococcus faecalis ATCC 29212. Other strains from the ATCC collection include Proteus vulgaris ATCC 49132, Proteus mirabilis ATCC 35659, Klebsiella pneumoniae ATCC 33495, Enterobacter aerogenes ATCC 35029 and Serratia marcescens ATCC 13880. S. aureus NRS100 (COL) is a well characterized methicillian-resistant S. aureus (MRSA) strain. The strains S. aureus VAN1 and S. aureus VAN2, vancomycin-resistant MRSA strains that were isolated in Michigan and Pennsylvania, were the first vancomycin-resistant strains clinically isolated. S. aureus NRS 119 and S. aureus NRS 120 are linezolid-resistant isolates from the Network on Antimicrobial Resistance in S. aureus (NARSA) collection. E. faecalis 99 and E. faecium 106 are vancomycin-resistant enterococcal strains.

[3] = system: Serratia marcescens ATCC 13880; assay: Broad-spectrum antibacterial MIC; format: cell-based; settings: Table 7B; 10% hemolytic dose divided by MIC; S. marcescens ATCC 13880
Protocol: as §2, §3

six strains of S. aureus = assay: Broad-spectrum antibacterial MIC, summary over S. aureus strains; format: cell-based; settings: text summary of Table 7B; 10% hemolytic dose / MIC
Protocol: The activities of ampetoids tested against BSL2 Gram-positive strains, however, compared very favorably to those of pexiganan.
as §3, with “E. faecalis 99 and E. faecium 106 are vancomycin-resistant enterococcal strains.” left out

[4] = system: NIH 3T3 mouse fibroblast cells; assay: MTS assay, NIH 3T3 cells; format: cell-based; settings: mouse, 3 h
In short: as §1

Compound	Selectivity ratio (SR) (E. coli JM109)	ID10 relative to that of pexiganan [1]	CC50 at 3 h (MTS assay, NIH 3T3 cells)	Selectivity ratio (SR) [2]	Selectivity ratio (SR) [3]	selectivity ratios, range over S. aureus strains (six strains of S. aureus)	ID50 [4]
C[C@@H](c1ccccc1)N(CC(=O)N(CCc1cnc[nH]1)CC(=O)N(CCCCN)CC(=O)N(CC(=O)N(CC(=O)N(CCCCN)CC(=O)N(CC(=O)N(CCc1cnc[nH]1)CC(N)=O)[C@@H](C)c1ccccc1)[C@@H](C)c1ccccc1)[C@@H](C)c1ccccc1)C(=O)CN(CCCCN)C(=O)CN(C(=O)CN(C(=O)CNCCCCN)[C@@H](C)c1ccccc1)[C@@H](C)c1ccccc1 [1-Nhis6,12, H-(Nlys-Nspe-Nspe-Nlys-Nspe-Nhis)2-NH2] (H-[Nlys][Nspe][Nspe][Nlys][Nspe][Gly(N-CH2CH2-imidazol-4-yl)][Nlys][Nspe][Nspe][Nlys][Nspe][Gly(N-CH2CH2-imidazol-4-yl)]-NH2)	> 31	20 times					
CC(C)[C@H](C)N(CC(=O)N(CC(=O)N(CCCCN)CC(=O)N(CC(=O)N(CC(=O)N(CCCCN)CC(=O)N(CC(=O)N(CC(=O)N(CCCCN)CC(=O)N(CC(=O)N(CC(N)=O)[C@@H](C)c1ccccc1)[C@@H](C)C(C)C)[C@@H](C)c1ccccc1)[C@@H](C)C(C)C)[C@@H](C)c1ccccc1)[C@@H](C)C(C)C)[C@@H](C)c1ccccc1)C(=O)CNCCCCN [1-Nsdp2,5,8,11, H-(Nlys-Nsdp-Nspe)4-NH2] (H-[Nlys][X1][Nspe][Nlys][X1][Nspe][Nlys][X1][Nspe][Nlys][X1][Nspe]-NH2)			20 µM	<1.5	<1.5		
NCCCCNCC(=O)N(CC(=O)N(CC(=O)N(CCCCN)CC(=O)N(CC(=O)N(CC(=O)N(CCCCN)CC(=O)N(CC(=O)N(CC(=O)N(CCCCN)CC(=O)N(CC(=O)N(CC(N)=O)Cc1ccccc1)Cc1ccccc1)Cc1ccccc1)Cc1ccccc1)Cc1ccccc1)Cc1ccccc1)Cc1ccccc1)Cc1ccccc1 [1achiral, H-(Nlys-Npm-Npm)4-NH2] (H-[Nlys][Nphe][Nphe][Nlys][Nphe][Nphe][Nlys][Nphe][Nphe][Nlys][Nphe][Nphe]-NH2)				<2.4	2.4	19-39	
GIGKFLKKAKKFGKAFVKILKK-NH2 [pexiganan, reference compound]				<1.4	<1.4	2.8-23	9 µM

Reference: patent US20120295838A1, “Selective poly-substituted glycine antibiotics and related compositions” (priority 2008, published 2012)
